Reference: publication PMC10415349, “Structural basis of agonist specificity of α1A-adrenergic receptor” (Nature Communications, 2023)

Tests used:
[1] = molecular target: T1, α1B-AR(A204V, S208A, L314M) (Homo sapiens, UniProt P35368, A204V/L314M/S208A); test: Ca2+ imaging (GCaMP6f) in transfected HEK293T cells; type: cell-based
T1 construct: gene ADRA1B
T1 sequence (P35368 1-520 A204V/S208A/L314M): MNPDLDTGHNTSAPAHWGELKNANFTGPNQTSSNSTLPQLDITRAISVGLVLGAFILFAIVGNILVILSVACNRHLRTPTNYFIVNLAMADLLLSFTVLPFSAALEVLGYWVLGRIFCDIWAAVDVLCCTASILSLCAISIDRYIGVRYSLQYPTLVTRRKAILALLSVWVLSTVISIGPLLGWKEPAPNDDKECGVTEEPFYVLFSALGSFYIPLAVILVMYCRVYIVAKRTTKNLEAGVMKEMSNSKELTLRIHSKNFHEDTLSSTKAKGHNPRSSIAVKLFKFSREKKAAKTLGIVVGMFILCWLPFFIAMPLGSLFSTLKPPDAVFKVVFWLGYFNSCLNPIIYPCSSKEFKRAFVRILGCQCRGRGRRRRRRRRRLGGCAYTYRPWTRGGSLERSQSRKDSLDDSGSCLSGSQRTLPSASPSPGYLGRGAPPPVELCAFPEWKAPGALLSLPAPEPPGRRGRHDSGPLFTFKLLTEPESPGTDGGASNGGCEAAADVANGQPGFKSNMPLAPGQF

[2] = molecular target: T2, α1A-AR(V185A, A189S, M292L) (Homo sapiens, UniProt P35348, V185A/A189S/M292L)
T2 construct: gene ADRA1A
T2 sequence (P35348 whole entry V185A/A189S/M292L): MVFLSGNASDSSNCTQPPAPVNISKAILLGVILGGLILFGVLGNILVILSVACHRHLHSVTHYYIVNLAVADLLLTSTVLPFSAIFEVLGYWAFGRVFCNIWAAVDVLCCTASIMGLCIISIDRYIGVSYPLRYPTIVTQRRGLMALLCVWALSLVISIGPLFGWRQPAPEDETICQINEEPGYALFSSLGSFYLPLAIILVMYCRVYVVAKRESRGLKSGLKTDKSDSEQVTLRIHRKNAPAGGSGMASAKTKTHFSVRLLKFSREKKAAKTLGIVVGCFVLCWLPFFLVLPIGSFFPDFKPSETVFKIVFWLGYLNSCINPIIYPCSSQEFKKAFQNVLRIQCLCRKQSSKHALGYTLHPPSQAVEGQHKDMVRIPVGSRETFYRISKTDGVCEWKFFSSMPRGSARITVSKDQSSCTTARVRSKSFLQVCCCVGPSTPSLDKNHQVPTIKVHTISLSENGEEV

With CS(=O)(=O)Nc1c(O)ccc2c1CCCC2C1=NCCN1 (centres unmarked) [A61603] the EC50 [1] was ~10 nM.

For CNC[C@H](O)c1ccc(O)c(O)c1 [epinephrine], the “Ca2+ imaging (GCaMP6f) in transfected HEK293T cells, saturating concentration” value [2] was “This triple mutant was still functional in response to epinephrine”.
